Source: ChEMBL document CHEMBL1156814, “Highly suppressing wild-type HIV-1 and Y181C mutant HIV-1 strains by 10-chloromethyl-11-demethyl-12-oxo-calanolide A with druggable profile” (J Med Chem, 2010)

Key:
[1] = system: Human immunodeficiency virus 1; assay: Antiviral activity against 100 TCID50 HIV1 infected in human TZM-b1 cells assessed as inhibition of viral replication by pseudovirus based assay; format: functional, organism-based
Mus musculus [2] = assay: Toxicity in ICR mouse assessed as mortality at 1000 mg/kg, ig after 4 days administered as single dose; format: organism-based; parameters: dose 1000 mg/kg, route intragastric; settings: in vivo, po, 96 h
Mus musculus [3] = assay: Toxicity in ICR mouse assessed as mortality at 1000 mg/kg, ig after 7 days administered as single dose; format: organism-based; parameters: dose 1000 mg/kg, route intragastric; settings: in vivo, po, 168 h
Mus musculus [4] = assay: Toxicity in ICR mouse assessed as mortality at 1000 mg/kg, ig after 11 days administered as single dose; format: organism-based; parameters: dose 1000 mg/kg, route intragastric; settings: in vivo, po, 264 h
Mus musculus [5] = assay: Toxicity in ICR mouse assessed as mortality at 1000 mg/kg, ig after 14 days administered as single dose; format: organism-based; parameters: dose 1000 mg/kg, route intragastric; settings: in vivo, po, 336 h
Mus musculus [6] = assay: Toxicity in ICR mouse assessed as body weight at 4640 mg/kg, ig after 1 day administered as single dose (reference value: 21.1+/-0.9); format: organism-based; parameters: dose 4640 mg/kg, route intragastric; settings: in vivo, po, 24 h
Mus musculus [7] = assay: Toxicity in ICR mouse assessed as body weight at 4640 mg/kg, ig after 4 days administered as single dose (reference value: 21.1+/-0.9); format: organism-based; parameters: dose 4640 mg/kg, route intragastric; settings: in vivo, po, 96 h
Mus musculus [8] = assay: Toxicity in ICR mouse assessed as body weight at 4640 mg/kg, ig after 7 days administered as single dose (reference value: 21.1+/-0.9); format: organism-based; parameters: dose 4640 mg/kg, route intragastric; settings: in vivo, po, 168 h
Mus musculus [9] = assay: Toxicity in ICR mouse assessed as body weight at 2150 mg/kg, ig after 1 day administered as single dose (reference value: 20.9+/-0.9); format: organism-based; parameters: dose 2150 mg/kg, route intragastric; settings: in vivo, po, 24 h
Mus musculus [10] = assay: Toxicity in ICR mouse assessed as body weight at 2150 mg/kg, ig after 4 days administered as single dose (reference value: 20.9+/-0.9); format: organism-based; parameters: dose 2150 mg/kg, route intragastric; settings: in vivo, po, 96 h
Mus musculus [11] = assay: Toxicity in ICR mouse assessed as body weight at 2150 mg/kg, ig after 7 days administered as single dose (reference value: 20.9+/-0.9); format: organism-based; parameters: dose 2150 mg/kg, route intragastric; settings: in vivo, po, 168 h
Mus musculus [12] = assay: Toxicity in ICR mouse assessed as body weight at 1000 mg/kg, ig after 1 day administered as single dose (reference value: 21.2+/-0.8); format: organism-based; parameters: dose 1000 mg/kg, route intragastric; settings: in vivo, po, 24 h
Mus musculus [13] = assay: Toxicity in ICR mouse assessed as body weight at 1000 mg/kg, ig after 4 days administered as single dose (reference value: 21.2+/-0.8); format: organism-based; parameters: dose 1000 mg/kg, route intragastric; settings: in vivo, po, 96 h
Mus musculus [14] = assay: Toxicity in ICR mouse assessed as body weight at 1000 mg/kg, ig after 7 days administered as single dose (reference value: 21.2+/-0.8); format: organism-based; parameters: dose 1000 mg/kg, route intragastric; settings: in vivo, po, 168 h
[15] = Toxicity in African green monkey Vero cells; format: cell-based; settings: chlorocebus sabaeus
[16] = Selectivity index, ratio of IC50 for African green monkey Vero cells to EC50 for HIV1; format: toxicity, cell-based; settings: read-out: Selectivity Index
[17] = system: Human immunodeficiency virus 1; assay: Antiviral activity against HIV1 PNL4-3; format: functional, organism-based; settings: Human immunodeficiency virus 1, PNL4-3
[18] = system: Human immunodeficiency virus 1; assay: Antiviral activity against HIV1 with reverse transcriptase K103N mutation; format: functional, organism-based
[19] = system: Human immunodeficiency virus 1; assay: Antiviral activity against HIV1 with reverse transcriptase Y181C mutation; format: functional, organism-based
[20] = system: Human immunodeficiency virus 1; assay: Antiviral activity against HIV1 with reverse transcriptase Y181L mutation; format: functional, organism-based
[21] = system: Human immunodeficiency virus 1; assay: Antiviral activity against HIV1 with reverse transcriptase G190A mutation; format: functional, organism-based
[22] = system: Human immunodeficiency virus 1; assay: Antiviral activity against HIV1 with reverse transcriptase […] mutation; format: functional, organism-based
Rattus norvegicus [23] = assay: AUC in Wistar rat at 50 mg/kg, po; format: ADME, organism-based, Plasma; parameters: dose 50 mg/kg, route oral; settings: in vivo
[24] = Mean residence time in Wistar rat at 50 mg/kg, po; format: ADME, organism-based; parameters: dose 50 mg/kg, route oral; settings: in vivo
[25] = Half life in Wistar rat at 50 mg/kg, po; format: ADME, organism-based; parameters: dose 50 mg/kg, route oral; settings: in vivo
[26] = Tmax in Wistar rat at 50 mg/kg, po; format: ADME, organism-based; parameters: dose 50 mg/kg, route oral; settings: in vivo
[27] = Cmax in Wistar rat at 50 mg/kg, po; format: ADME, organism-based; parameters: dose 50 mg/kg, route oral; settings: in vivo
Rattus norvegicus [28] = assay: AUC in Wistar rat at 5 mg/kg, iv; format: ADME, organism-based, Plasma; parameters: dose 5 mg/kg, route intravenous; settings: in vivo
[29] = Mean residence time in Wistar rat at 5 mg/kg, iv; format: ADME, organism-based; parameters: dose 5 mg/kg, route intravenous; settings: in vivo
[30] = Half life in Wistar rat at 5 mg/kg, iv; format: ADME, organism-based; parameters: dose 5 mg/kg, route intravenous; settings: in vivo
[31] = Tmax in Wistar rat at 5 mg/kg, iv; format: ADME, organism-based; parameters: dose 5 mg/kg, route intravenous; settings: in vivo
[32] = Cmax in Wistar rat at 5 mg/kg, iv; format: ADME, organism-based; parameters: dose 5 mg/kg, route intravenous; settings: in vivo
[33] = Oral bioavailability in Wistar rat at 50 mg/kg; format: ADME, organism-based; settings: in vivo
Mus musculus [34] = assay: Toxicity in ICR mouse assessed as mortality at 4640 mg/kg, ig after 1 day administered as single dose; format: organism-based; parameters: dose 4640 mg/kg, route intragastric; settings: in vivo, po, 24 h
Mus musculus [35] = assay: Toxicity in ICR mouse assessed as mortality at 4640 mg/kg, ig after 4 days administered as single dose; format: organism-based; parameters: dose 4640 mg/kg, route intragastric; settings: in vivo, po, 96 h
Mus musculus [36] = assay: Toxicity in ICR mouse assessed as mortality at 4640 mg/kg, ig after 7 days administered as single dose; format: organism-based; parameters: dose 4640 mg/kg, route intragastric; settings: in vivo, po, 168 h
Mus musculus [37] = assay: Toxicity in ICR mouse assessed as mortality at 4640 mg/kg, ig after 11 days administered as single dose; format: organism-based; parameters: dose 4640 mg/kg, route intragastric; settings: in vivo, po, 264 h
Mus musculus [38] = assay: Toxicity in ICR mouse assessed as mortality at 4640 mg/kg, ig after 14 days administered as single dose; format: organism-based; parameters: dose 4640 mg/kg, route intragastric; settings: in vivo, po, 336 h
Mus musculus [39] = assay: Toxicity in ICR mouse assessed as mortality at 2150 mg/kg, ig after 1 day administered as single dose; format: organism-based; parameters: dose 2150 mg/kg, route intragastric; settings: in vivo, po, 24 h
Mus musculus [40] = assay: Toxicity in ICR mouse assessed as mortality at 2150 mg/kg, ig after 4 days administered as single dose; format: organism-based; parameters: dose 2150 mg/kg, route intragastric; settings: in vivo, po, 96 h
Mus musculus [41] = assay: Toxicity in ICR mouse assessed as mortality at 2150 mg/kg, ig after 7 days administered as single dose; format: organism-based; parameters: dose 2150 mg/kg, route intragastric; settings: in vivo, po, 168 h
Mus musculus [42] = assay: Toxicity in ICR mouse assessed as mortality at 2150 mg/kg, ig after 11 days administered as single dose; format: organism-based; parameters: dose 2150 mg/kg, route intragastric; settings: in vivo, po, 264 h
Mus musculus [43] = assay: Toxicity in ICR mouse assessed as mortality at 2150 mg/kg, ig after 14 days administered as single dose; format: organism-based; parameters: dose 2150 mg/kg, route intragastric; settings: in vivo, po, 336 h
Mus musculus [44] = assay: Toxicity in ICR mouse assessed as mortality at 1000 mg/kg, ig after 1 day administered as single dose; format: organism-based; parameters: dose 1000 mg/kg, route intragastric; settings: in vivo, po, 24 h
[45] = Toxicity in human TZM-b1 cells; format: cell-based
[46] = Human immunodeficiency virus 1, TZM-b1, read-out: EC50

CCCc1cc(=O)oc2c3c(c4c(c12)OC(C)(C)C=C4)OC(CNS(=O)(=O)c1ccc(OC)cc1)CC3=O (stereo unspecified)
EC50 ([1]; tzm-b1): Not Active

CCCc1cc(=O)oc2c3c(c4c(c12)OC(C)(C)C=C4)OC(CN(C)C)CC3=O (stereo unspecified)
EC50 ([1]; tzm-b1): Not Active

CCCc1cc(=O)oc2c3c(c4c(c12)OC(C)(C)C=C4)OC(CCl)CC3=O (stereo unspecified)
Activity (Mus musculus [2]): Non-toxic | Activity (Mus musculus [3]): Non-toxic | Activity (Mus musculus [4]): Non-toxic | Activity (Mus musculus [5]): Non-toxic | Activity (Mus musculus [6]): 23.2 g | Activity (Mus musculus [7]): 27.5 g | Activity (Mus musculus [8]): 29.9 g | Activity (Mus musculus [9]): 23 g | Activity (Mus musculus [10]): 28 g | Activity (Mus musculus [11]): 31.4 g | Activity (Mus musculus [12]): 23 g | Activity (Mus musculus [13]): 28.5 g | Activity (Mus musculus [14]): 31.1 g | EC50 [1, 46]: 7.4 nM | CC50 [15]: 10500 nM | selectivity ratio [16]: 1420 | EC50 [17]: 7.4 nM | EC50 [18]: 316 nM | EC50 [19]: 0.46 nM | EC50 [20]: 6130 nM | EC50 [21]: 43.9 nM | EC50 [22]: 104 nM | AUC (Rattus norvegicus [23]): 4.7 ug/hr.ml | MRT [24]: 9.2 h | half-life [25]: 3.8 h | Tmax [26]: 8 h | Cmax [27]: 340 ng/mL | AUC (Rattus norvegicus [28]): 1.5 ug/hr.ml | MRT [29]: 1.7 h | half-life [30]: 1.9 h | Tmax [31]: 1.8 min | Cmax [32]: 930 ng/mL | bioavailability [33]: 32.7% | Activity (Mus musculus [34]): Non-toxic | Activity (Mus musculus [35]): Non-toxic | Activity (Mus musculus [36]): Non-toxic | Activity (Mus musculus [37]): Non-toxic | Activity (Mus musculus [38]): Non-toxic | Activity (Mus musculus [39]): Non-toxic | Activity (Mus musculus [40]): Non-toxic | Activity (Mus musculus [41]): Non-toxic | Activity (Mus musculus [42]): Non-toxic | Activity (Mus musculus [43]): Non-toxic | Activity (Mus musculus [44]): Non-toxic

CCCc1cc(=O)oc2c3c(c4c(c12)OC(C)(C)C=C4)OC(C(F)(F)F)CC3=O (stereo unspecified)
EC50 [1, 46]: 14900 nM

CCCc1cc(=O)oc2c3c(c4c(c12)OC(C)(C)C=C4)OC(CN1CCCCC1)CC3=O (stereo unspecified)
EC50 ([1]; tzm-b1): Not Active

CCCc1cc(=O)oc2c3c(c4c(c12)OC(C)(C)C=C4)O[C@H]1C[C@H]1C3=O (relative stereo) [CIS-10,11-CYCLOPROPYL-12-OXO-CALANOLIDE A]
EC50 [1, 46]: 14.1 nM | CC50 [15]: 7140 nM | selectivity ratio [16]: 709

CCCc1cc(=O)oc2c3c(c4c(c12)OC(C)(C)C=C4)OC(CN)CC3=O (stereo unspecified) [1'-AMINEMETHYL-11-DEMETHYL-12-OXO-CALANOLIDE A]
EC50 ([1]; tzm-b1): Not Active

CCCc1cc(=O)oc2c3c(c4c(c12)OC(C)(C)C=C4)OC(CN=[N+]=[N-])CC3=O (stereo unspecified) [1'-AZIDEMETHYL-11-DEMETHYL-12-OXO-CALANOLIDE A]
EC50 ([1]; tzm-b1): Not Active | Activity [45]: Toxic

CCCc1cc(=O)oc2c3c(c4c(c12)OC(C)(C)C=C4)O[C@H](C)[C@@H](C)[C@@H]3O [CALANOLIDE A]
EC50 [1, 46]: 100 nM | selectivity ratio [16]: 16 | EC50 [17]: 11.4 nM | EC50 [18]: 464 nM | EC50 [19]: 10600 nM | EC50 [20]: 7170 nM | EC50 [21]: 159 nM | EC50 [22]: 2.2 nM

Cc1ccnc2c1NC(=O)c1cccnc1N2C1CC1 [NEVIRAPINE]
EC50 [1, 46]: 8.2 nM | CC50 [15]: 27100 nM | selectivity ratio [16]: 3300 | EC50 [17]: 97.5 nM | EC50 [18]: 13400 nM | EC50 [19]: 42.6 nM | EC50 [20]: 10500 nM | EC50 [21]: 385 nM | EC50 [22]: 6150 nM
